# From the supplement of paper PMC12317010
# Counter-ions that a name gives are not always drawn.
# Assay: collision cross section in nitrogen (drift tube, single-field); higher = larger gas-phase ion size
# [1] = ion type: [M+Na], ion source: ESI, ion mode: Positive
# [2] = ion type: [M+H], ion source: APCI, ion mode: Positive
# [3] = ion type: [M+H], ion source: ESI, ion mode: Positive
# [4] = ion type: [M-H], ion source: ESI, ion mode: Negative
# 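Note: chemical standards at 10 µM analysed by drift tube IMS-QTOF MS in about 3.95 torr nitrogen, mean of duplicate injections differing ≤1%, mass error below 10 ppm.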
smiles,measurement,setting,value
C=CCOC(=O)c1ccc(C(=O)OCC=C)c(C(=O)OCC=C)c1 [Triallyl trimellitate],collision cross section in nitrogen,[1],189.3 Å²
Nc1nc(N)c2nc(-c3ccccc3)c(N)nc2n1 [Triamterene],collision cross section in nitrogen,[2],158.4 Å²
same,collision cross section in nitrogen,[3],158.3 Å²
same,collision cross section in nitrogen,[1],173 Å²
same,collision cross section in nitrogen,"ion type: [M+], ion source: APCI, ion mode: Positive",155 Å²
same,collision cross section in nitrogen,[4],157.7 Å²
c1ccc(CN(Cc2ccccc2)Cc2ccccc2)cc1 [Tribenzylamine],collision cross section in nitrogen,[2],169.1 Å²
same,collision cross section in nitrogen,[3],169.2 Å²
O=C(Nc1ccc(Br)cc1)c1cc(Br)cc(Br)c1O [Tribromsalan],collision cross section in nitrogen,[4],173.7 Å²
CCCCSP(=O)(SCCCC)SCCCC [Tribufos],collision cross section in nitrogen,[2],177.5 Å²
same,collision cross section in nitrogen,[3],177.2 Å²
same,collision cross section in nitrogen,[1],194.4 Å²
CCCCOC(=O)CC(O)(CC(=O)OCCCC)C(=O)OCCCC [Tributyl citrate],collision cross section in nitrogen,[1],202.7 Å²
CCCCCCCCCCCCCC[P+](CCCC)(CCCC)CCCC [Tributyltetradecylphosphonium chloride],collision cross section in nitrogen,"ion source: APCI, ion mode: Positive, ion type: [M]+ (permanent cation)",224 Å²
same,collision cross section in nitrogen,"ion source: ESI, ion mode: Positive, ion type: [M]+ (permanent cation)",224.5 Å²
CCCCCCCC(=O)OCC(COC(=O)CCCCCCC)OC(=O)CCCCCCC [Tricaprylin],collision cross section in nitrogen,[1],231.4 Å²
COP(=O)(OC)C(O)C(Cl)(Cl)Cl (stereo unspecified) [Trichlorfon],collision cross section in nitrogen,[1],151.7 Å²
O=C(Nc1ccc(Cl)cc1)Nc1ccc(Cl)c(Cl)c1 [Triclocarban],collision cross section in nitrogen,[4],169 Å²
CCCCOCCOC(=O)COc1nc(Cl)c(Cl)cc1Cl [Triclopyr 2-butoxyethyl ester],collision cross section in nitrogen,[1],176.3 Å²
C=CC(=O)OCC1CC2CC1C1CCC(COC(=O)C=C)C21 (stereo unspecified) [Tricyclodecanedimethanol diacrylate],collision cross section in nitrogen,[1],176.9 Å²
CCOC(=O)CC(O)(CC(=O)OCC)C(=O)OCC [Triethyl citrate],collision cross section in nitrogen,[1],169.1 Å²
CCOC(=O)CP(=O)(OCC)OCC [Triethyl phosphonoacetate],collision cross section in nitrogen,[2],143.6 Å²
same,collision cross section in nitrogen,[3],143.7 Å²
same,collision cross section in nitrogen,[1],155 Å²
CCCCC(CC)C(=O)OCCOCCOCCOC(=O)C(CC)CCCC (stereo unspecified) [Triethylene glycol bis(2-ethylhexanoate)],collision cross section in nitrogen,[1],207.3 Å²
CC(=O)OCCOCCOCCOC(C)=O [Triethylene glycol diacetate],collision cross section in nitrogen,[1],151.3 Å²
COCCOCCOCCOC [Triethylene glycol dimethyl ether],collision cross section in nitrogen,[1],138.1 Å²
OCCOCCOCCO [Triethylene glycol],collision cross section in nitrogen,[1],131.5 Å²
CO/N=C(/C(=O)OC)c1ccccc1CO/N=C(\C)c1cccc(C(F)(F)F)c1 [Trifloxystrobin],collision cross section in nitrogen,[2],187.4 Å²
same,collision cross section in nitrogen,[3],187.2 Å²
same,collision cross section in nitrogen,[1],193 Å²
COc1cc(OC)nc(NC(=O)NS(=O)(=O)c2ncccc2OCC(F)(F)F)n1 [Trifloxysulfuron-sodium],collision cross section in nitrogen,[3],192 Å²
same,collision cross section in nitrogen,[1],194.5 Å²
same,collision cross section in nitrogen,[4],190.2 Å²
CCCOC/C(=N\c1ccc(Cl)cc1C(F)(F)F)n1ccnc1 [Triflumizole],collision cross section in nitrogen,[2],179.8 Å²
same,collision cross section in nitrogen,[3],180 Å²
same,collision cross section in nitrogen,[4],170.3 Å²
O=C(NC(=O)c1ccccc1Cl)Nc1ccc(OC(F)(F)F)cc1 [Triflumuron],collision cross section in nitrogen,[1],186.6 Å²
same,collision cross section in nitrogen,[4],179.1 Å²
O=S(=O)(O)C(F)(F)F [Trifluoromethanesulfonic acid],collision cross section in nitrogen,[4],110.8 Å²
CCCN(CCC)c1c([N+](=O)[O-])cc(C(F)(F)F)cc1[N+](=O)[O-] [Trifluralin],collision cross section in nitrogen,[4],169.2 Å²
CC(C)COP(=O)(OCC(C)C)OCC(C)C [Triisobutyl phosphate],collision cross section in nitrogen,[1],183.6 Å²
CC(O)CN(CC(C)O)CC(C)O (stereo unspecified) [Triisopropanolamine],collision cross section in nitrogen,[2],141.3 Å²
same,collision cross section in nitrogen,[3],141.5 Å²
same,collision cross section in nitrogen,[1],143.9 Å²
C[C@]12CC[C@H]3[C@@H](CC[C@@]45O[C@@H]4C(O)=C(C#N)C[C@]35C)[C@@H]1CC[C@@H]2O [Trilostane],collision cross section in nitrogen,[4],186.2 Å²
O=C(O)c1ccc2c(c1)C(=O)OC2=O [Trimellitic anhydride],collision cross section in nitrogen,[4],146.5 Å²
"CC(CCCCN)C(C)(C)N (stereo unspecified) [Trimethylhexane-1,6-diamine]",collision cross section in nitrogen,[3],140.4 Å²
C=CC(=O)OCC(CC)(COC(=O)C=C)COC(=O)C=C [Trimethylolpropane triacrylate],collision cross section in nitrogen,[1],165.9 Å²
CCOC(=O)C1CC(=O)C(=C(O)C2CC2)C(=O)C1 (stereo unspecified) [Trinexapac-ethyl],collision cross section in nitrogen,[1],167.5 Å²
C(=C(c1ccccc1)c1ccccc1)c1ccccc1 [Triphenylethylene],collision cross section in nitrogen,[3],153.5 Å²
O=P(c1ccccc1)(c1ccccc1)c1ccccc1 [Triphenylphosphine oxide],collision cross section in nitrogen,[2],163 Å²
same,collision cross section in nitrogen,[3],162.9 Å²
same,collision cross section in nitrogen,[1],182.6 Å²
O[Si](c1ccccc1)(c1ccccc1)c1ccccc1 [Triphenylsilanol],collision cross section in nitrogen,[4],171 Å²
CCC(=O)OCC(COC(=O)CC)OC(=O)CC [Tripropionin],collision cross section in nitrogen,[1],161.2 Å²
CCCOP(=O)(OCCC)OCCC [Tripropyl phosphate],collision cross section in nitrogen,[1],168.5 Å²
C=CC(=O)OCC(C)OCC(C)OCC(C)OC(=O)C=C (stereo unspecified) [Tripropylene glycol diacrylate],collision cross section in nitrogen,[1],169.9 Å²
COCC(C)OCC(C)OCC(C)O (stereo unspecified) [Tripropylene glycol monomethyl ether],collision cross section in nitrogen,[1],148.8 Å²
CC(O)COC(C)COC(C)CO (stereo unspecified) [Tripropylene glycol],collision cross section in nitrogen,[1],144.9 Å²
"O=c1n(CC2CO2)c(=O)n(CC2CO2)c(=O)n1CC1CO1 (stereo unspecified) [Tris(2,3-epoxypropyl)isocyanurate]",collision cross section in nitrogen,[2],158.6 Å²
same,collision cross section in nitrogen,[3],160.1 Å²
same,collision cross section in nitrogen,[1],163.2 Å²
O=P(OCCCl)(OCCCl)OCCCl [Tris(2-chloroethyl) phosphate],collision cross section in nitrogen,[1],160.2 Å²
CC(CCl)OP(=O)(OC(C)CCl)OC(C)CCl (stereo unspecified) [Tris(2-chloroisopropyl)phosphate],collision cross section in nitrogen,[1],171.9 Å²
CC(Cl)COP(=O)(OCC(C)Cl)OCC(C)Cl (stereo unspecified) [Tris(2-chloropropyl) phosphate],collision cross section in nitrogen,[1],171.4 Å²
